Test results from ChEMBL document CHEMBL1201862, “PubChem BioAssay data set” (2004).
Each block holds one molecule with its values, some of them ahead of it. The source made the active and inactive calls.

Experiments:
Albumin = Albumin (Bos taurus, UniProt P02769); experiment: Counterscreen for inhibitors of T-cell receptor (TCR)-CD3 interaction: Fluorescence-based biochemical high throughput dose response assay to identify inhibitors of T-cell receptor (TCR)-CD3 interaction using a TAMRA-labeled BSA probe.; format: functional
Chain of Albumin (P02769 whole entry): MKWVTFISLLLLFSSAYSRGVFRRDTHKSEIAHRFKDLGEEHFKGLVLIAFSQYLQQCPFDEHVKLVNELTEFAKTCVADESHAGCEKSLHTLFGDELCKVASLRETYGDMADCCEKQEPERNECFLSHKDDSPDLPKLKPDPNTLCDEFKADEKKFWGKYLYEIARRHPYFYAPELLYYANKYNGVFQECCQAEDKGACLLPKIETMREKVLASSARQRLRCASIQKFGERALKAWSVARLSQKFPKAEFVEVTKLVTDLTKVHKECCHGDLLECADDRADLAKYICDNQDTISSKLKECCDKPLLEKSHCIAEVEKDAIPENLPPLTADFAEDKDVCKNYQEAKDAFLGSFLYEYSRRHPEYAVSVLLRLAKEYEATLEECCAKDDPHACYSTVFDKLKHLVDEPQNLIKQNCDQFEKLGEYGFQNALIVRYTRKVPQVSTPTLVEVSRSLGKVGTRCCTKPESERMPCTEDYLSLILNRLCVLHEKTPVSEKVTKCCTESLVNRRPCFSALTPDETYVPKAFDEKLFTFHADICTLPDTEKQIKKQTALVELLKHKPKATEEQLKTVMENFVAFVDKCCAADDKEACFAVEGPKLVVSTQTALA

Caspase-3 = biological target: T1, Caspase-3 (Homo sapiens, UniProt P42574); experiment: SAR Analysis of small molecule inhibitors of Sentrin-specific proteases (SENPs) using a Caspase-3 Selectivity assay. [Related pubchem assays (depositor defined):AID2540, AID2599, AID434973, AID489001]; format: functional
T1 sequence (P42574 whole entry): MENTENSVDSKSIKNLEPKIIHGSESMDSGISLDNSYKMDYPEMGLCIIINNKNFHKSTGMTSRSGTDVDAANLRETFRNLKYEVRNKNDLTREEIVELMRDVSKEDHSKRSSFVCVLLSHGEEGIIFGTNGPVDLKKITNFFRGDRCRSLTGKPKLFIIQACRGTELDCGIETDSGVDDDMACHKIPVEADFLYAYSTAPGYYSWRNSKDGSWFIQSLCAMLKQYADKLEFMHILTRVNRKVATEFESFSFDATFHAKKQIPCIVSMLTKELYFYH

[1] = biological target: T2, Sentrin-specific protease 6 (Homo sapiens, UniProt Q9GZR1); experiment: SAR Analysis of small molecule inhibitors of Sentrin-specific protease 6 (SENP6) using a Luminescent assay. [Related pubchem assays (depositor defined):AID2582, AID2599]; format: functional
T2 sequence (Q9GZR1 whole entry): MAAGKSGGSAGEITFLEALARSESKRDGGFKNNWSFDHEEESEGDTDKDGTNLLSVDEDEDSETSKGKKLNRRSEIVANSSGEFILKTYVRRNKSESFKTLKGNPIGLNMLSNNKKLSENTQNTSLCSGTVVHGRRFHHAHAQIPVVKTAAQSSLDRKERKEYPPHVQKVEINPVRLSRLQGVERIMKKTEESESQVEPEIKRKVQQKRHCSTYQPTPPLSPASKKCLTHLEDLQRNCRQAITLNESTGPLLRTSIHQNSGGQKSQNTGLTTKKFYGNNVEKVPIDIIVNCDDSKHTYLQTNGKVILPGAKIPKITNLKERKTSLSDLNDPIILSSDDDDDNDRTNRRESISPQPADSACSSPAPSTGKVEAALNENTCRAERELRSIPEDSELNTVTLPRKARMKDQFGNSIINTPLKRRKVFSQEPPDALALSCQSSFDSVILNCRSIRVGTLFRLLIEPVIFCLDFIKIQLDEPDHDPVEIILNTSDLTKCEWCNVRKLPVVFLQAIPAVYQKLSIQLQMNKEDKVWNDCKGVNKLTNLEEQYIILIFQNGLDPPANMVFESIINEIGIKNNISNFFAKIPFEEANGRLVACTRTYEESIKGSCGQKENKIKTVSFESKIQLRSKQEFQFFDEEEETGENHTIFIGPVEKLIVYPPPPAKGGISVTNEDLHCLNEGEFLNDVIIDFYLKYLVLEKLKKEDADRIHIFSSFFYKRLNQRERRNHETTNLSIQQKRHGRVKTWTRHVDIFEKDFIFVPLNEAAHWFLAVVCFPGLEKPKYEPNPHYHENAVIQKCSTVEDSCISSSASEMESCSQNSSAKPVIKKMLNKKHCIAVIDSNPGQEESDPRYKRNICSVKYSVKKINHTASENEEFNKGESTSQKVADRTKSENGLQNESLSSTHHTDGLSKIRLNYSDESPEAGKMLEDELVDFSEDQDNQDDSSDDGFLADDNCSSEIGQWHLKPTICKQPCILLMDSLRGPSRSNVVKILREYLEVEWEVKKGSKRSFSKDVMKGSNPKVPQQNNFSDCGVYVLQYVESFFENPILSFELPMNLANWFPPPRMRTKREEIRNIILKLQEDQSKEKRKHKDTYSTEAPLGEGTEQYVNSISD

[2] = biological target: T3, Sentrin-specific protease 8 (Homo sapiens, UniProt Q96LD8); experiment: inhibition of human SENP8 cleavage activity – biochemical, luminescence, SAR follow-up (AID 504501); format: functional
T3 sequence (Q96LD8 whole entry): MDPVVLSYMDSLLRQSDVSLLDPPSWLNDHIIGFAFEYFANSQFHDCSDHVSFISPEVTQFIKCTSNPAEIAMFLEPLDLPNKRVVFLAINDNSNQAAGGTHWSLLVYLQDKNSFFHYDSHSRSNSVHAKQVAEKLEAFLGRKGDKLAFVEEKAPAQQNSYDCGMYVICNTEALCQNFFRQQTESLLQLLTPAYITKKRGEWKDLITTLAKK

[3] = biological target: T4, Sentrin-specific protease 7 (Homo sapiens, UniProt Q9BQF6); experiment: inhibition of human SENP7 cleavage activity – biochemical, luminescence, SAR follow-up (AID 504497); format: functional
T4 sequence (Q9BQF6 whole entry): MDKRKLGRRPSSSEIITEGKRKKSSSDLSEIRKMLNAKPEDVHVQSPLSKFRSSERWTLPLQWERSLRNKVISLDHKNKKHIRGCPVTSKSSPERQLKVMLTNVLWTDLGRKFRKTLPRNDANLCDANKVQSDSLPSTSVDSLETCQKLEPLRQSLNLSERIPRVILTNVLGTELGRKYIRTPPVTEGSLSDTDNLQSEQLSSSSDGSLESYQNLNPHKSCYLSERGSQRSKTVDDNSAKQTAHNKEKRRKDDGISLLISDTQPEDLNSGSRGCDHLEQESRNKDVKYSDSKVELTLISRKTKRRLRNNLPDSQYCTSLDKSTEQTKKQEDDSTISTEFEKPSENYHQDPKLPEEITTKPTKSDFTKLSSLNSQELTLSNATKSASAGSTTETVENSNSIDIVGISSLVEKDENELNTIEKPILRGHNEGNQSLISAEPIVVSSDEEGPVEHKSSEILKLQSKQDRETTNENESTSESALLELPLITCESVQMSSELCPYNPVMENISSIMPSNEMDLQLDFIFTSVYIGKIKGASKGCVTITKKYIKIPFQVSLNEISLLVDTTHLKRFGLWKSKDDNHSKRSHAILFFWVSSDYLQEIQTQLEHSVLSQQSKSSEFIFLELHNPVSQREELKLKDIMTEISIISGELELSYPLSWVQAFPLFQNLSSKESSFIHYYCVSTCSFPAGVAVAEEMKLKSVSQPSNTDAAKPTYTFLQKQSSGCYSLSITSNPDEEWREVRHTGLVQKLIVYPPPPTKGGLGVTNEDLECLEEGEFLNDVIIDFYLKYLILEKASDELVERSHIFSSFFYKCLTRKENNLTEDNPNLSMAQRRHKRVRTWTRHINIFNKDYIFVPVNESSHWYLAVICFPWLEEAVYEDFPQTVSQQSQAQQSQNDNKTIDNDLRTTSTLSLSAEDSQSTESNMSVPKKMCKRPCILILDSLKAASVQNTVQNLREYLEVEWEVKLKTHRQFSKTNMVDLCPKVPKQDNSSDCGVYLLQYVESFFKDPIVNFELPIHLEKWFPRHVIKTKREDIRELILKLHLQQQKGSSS

P388/ADR = experiment: cells; format: functional; details: Mus musculus
SN12K1 = experiment: cells; format: functional; details: Homo sapiens, SN12K1
P388 = experiment: cells; format: functional; details: Mus musculus
[4] = activation of miR-122 Renilla sensor silencing – cell-based, Huh7 psiCHECK-miR122, Renilla luciferase, cherry-picked, dose response (AID 651956); format: functional;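 further: huh7 hepatoma cells stably carrying a psiCHECK-2 miR-122 sensor plasmid; renilla luciferase signal reporting endogenous miR-122 activity after 48 h compound exposure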
[5] = intracellular Trypanosoma cruzi inhibitors in host cells – cell-based, plate reader, cherry-pick samples, set 3, dose response (AID 651818); format: functional;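 further: compounds incubated with infected cells for about four days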
[6] = NIH-3T3 fibroblast cytotoxicity, dose response, cytotoxicity control, cell-based, fluorescence, Alamar Blue, secondary assay (AID 2327); format: functional;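 further: NIH-3T3 mouse fibroblasts cultured with fluconazole at 8 µg/mL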
Streptococcus = experiment: GAS UMAA2166 growth inhibition – luminescence, BacTiterGlo, counter-screen for streptokinase expression inhibitor project, dose response (AID 1915); format: functional, organism-based;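 further: potency for reduction of bacterial viability or growth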
Fatty acid synthase [7] = biological target: T5, Fatty acid synthase (Homo sapiens, UniProt P49327); experiment: inhibition of human FAS-TE enzyme activity – biochemical, kinetic fluorescence intensity, dose response (AID 624326); format: functional;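 further: rate of fluorescence rise from hydrolysis of a fluorogenic O-methyl fluorescein ester substrate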
T5 sequence (P49327 whole entry): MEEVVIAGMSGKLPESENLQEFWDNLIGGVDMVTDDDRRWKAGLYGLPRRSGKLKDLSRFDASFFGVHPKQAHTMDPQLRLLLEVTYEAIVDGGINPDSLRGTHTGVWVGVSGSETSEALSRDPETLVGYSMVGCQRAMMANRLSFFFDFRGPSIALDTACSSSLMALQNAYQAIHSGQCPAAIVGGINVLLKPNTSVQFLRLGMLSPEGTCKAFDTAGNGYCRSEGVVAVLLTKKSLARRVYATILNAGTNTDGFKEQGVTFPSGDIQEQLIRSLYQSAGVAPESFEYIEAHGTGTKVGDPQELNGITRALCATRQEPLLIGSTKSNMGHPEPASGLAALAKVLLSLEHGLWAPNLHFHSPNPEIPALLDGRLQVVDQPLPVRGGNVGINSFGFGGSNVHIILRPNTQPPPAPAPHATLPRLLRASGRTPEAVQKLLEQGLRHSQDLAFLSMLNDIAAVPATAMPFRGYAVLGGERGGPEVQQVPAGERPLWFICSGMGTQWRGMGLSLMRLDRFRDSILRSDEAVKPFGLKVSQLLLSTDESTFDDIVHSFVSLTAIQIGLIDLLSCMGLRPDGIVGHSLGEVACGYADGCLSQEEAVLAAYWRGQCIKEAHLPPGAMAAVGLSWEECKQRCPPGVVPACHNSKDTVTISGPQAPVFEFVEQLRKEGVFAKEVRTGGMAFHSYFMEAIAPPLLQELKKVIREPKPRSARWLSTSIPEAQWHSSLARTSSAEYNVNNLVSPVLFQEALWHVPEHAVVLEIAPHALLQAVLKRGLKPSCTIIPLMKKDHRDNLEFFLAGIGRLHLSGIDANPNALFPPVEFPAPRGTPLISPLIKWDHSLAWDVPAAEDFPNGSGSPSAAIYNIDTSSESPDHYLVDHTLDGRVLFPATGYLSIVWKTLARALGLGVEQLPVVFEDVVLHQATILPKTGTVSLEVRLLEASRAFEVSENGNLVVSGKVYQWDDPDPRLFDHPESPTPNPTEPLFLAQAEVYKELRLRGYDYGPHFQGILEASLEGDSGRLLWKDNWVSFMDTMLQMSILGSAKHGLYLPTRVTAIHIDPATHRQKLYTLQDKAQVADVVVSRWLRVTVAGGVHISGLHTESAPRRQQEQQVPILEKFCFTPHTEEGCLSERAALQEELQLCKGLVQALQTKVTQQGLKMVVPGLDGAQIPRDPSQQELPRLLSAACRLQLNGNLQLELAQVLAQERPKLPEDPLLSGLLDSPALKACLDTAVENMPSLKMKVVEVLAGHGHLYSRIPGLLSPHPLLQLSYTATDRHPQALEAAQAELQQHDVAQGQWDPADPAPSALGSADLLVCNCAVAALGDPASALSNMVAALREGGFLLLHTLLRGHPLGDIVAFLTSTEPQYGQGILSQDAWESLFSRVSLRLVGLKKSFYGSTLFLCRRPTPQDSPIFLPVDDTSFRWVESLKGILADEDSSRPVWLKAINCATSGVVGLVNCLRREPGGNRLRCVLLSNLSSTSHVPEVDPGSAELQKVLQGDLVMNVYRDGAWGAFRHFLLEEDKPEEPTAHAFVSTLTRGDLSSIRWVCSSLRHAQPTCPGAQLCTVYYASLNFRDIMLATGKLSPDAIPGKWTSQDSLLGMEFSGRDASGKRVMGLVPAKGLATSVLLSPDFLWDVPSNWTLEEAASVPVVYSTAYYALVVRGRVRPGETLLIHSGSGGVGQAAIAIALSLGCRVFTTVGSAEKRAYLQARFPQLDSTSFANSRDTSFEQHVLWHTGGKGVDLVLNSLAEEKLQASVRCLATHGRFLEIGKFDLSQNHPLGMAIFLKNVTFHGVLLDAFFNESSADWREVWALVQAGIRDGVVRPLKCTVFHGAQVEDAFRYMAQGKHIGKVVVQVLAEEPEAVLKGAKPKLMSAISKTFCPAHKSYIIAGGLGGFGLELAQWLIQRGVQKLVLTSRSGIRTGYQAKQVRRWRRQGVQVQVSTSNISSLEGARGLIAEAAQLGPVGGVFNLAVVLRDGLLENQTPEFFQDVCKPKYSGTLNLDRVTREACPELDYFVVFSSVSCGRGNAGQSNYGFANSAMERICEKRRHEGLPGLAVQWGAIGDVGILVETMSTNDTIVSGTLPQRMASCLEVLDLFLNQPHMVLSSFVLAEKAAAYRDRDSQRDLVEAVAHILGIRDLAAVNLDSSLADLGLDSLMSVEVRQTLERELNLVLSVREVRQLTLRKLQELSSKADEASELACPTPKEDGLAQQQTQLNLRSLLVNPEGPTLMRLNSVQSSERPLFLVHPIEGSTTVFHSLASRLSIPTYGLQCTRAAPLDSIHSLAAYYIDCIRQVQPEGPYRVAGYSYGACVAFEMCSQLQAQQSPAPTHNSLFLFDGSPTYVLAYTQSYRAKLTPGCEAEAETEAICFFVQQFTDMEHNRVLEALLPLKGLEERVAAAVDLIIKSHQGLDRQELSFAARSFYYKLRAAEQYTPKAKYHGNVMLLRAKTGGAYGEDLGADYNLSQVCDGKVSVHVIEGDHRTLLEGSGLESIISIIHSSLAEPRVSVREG

[8] = fluconazole-exposed Candida albicans growth modulators – fluorescence, retest, confirmation (AID 2467); format: functional, cell-based
Fatty acid synthase [9] = biological target: T5, Fatty acid synthase; experiment: inhibition of human FAS-TE enzyme activity – biochemical, endpoint fluorescence intensity, uHTS hits, dose response (AID 624327); format: functional;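 further: fluorescence from hydrolysis of an O-methyl fluorescein acyl ester substrate by the enzyme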
[10] = tested on: Streptococcus sp. 'group A'; experiment: Streptococcus pyogenes SK(-)GAS viability under kanamycin – luminescence, BacTiterGlo, confirmation, counter-screen for streptokinase expression inhibitor project, dose response (AID 1900); format: functional, organism-based

IC50 (Albumin): > 94.1 µM (inactive)
SMILES: CC(=O)c1cccc(NC(=O)C(OC(=O)c2cccc(S(=O)(=O)N(C)c3ccccc3)c2)c2ccccc2)c1 (stereo not drawn)

IC50 (Caspase-3): > 99 µM (inactive)
IC50 [1]: 4.15 µM (active)
IC50 [3]: > 99 µM (inactive)
SMILES: COc1ccc(C(=O)NN=c2c(=O)c3ccccc3c2=O)cc1
IC50 [2]: > 99 µM (inactive)

IC50 (Caspase-3): > 99 µM (inactive)
IC50 [1]: 42.2 µM (active)
IC50 [3]: 27.2 µM (active)
SMILES: Fc1ccc(N/N=C/c2c[nH]c3ccccc23)cc1
IC50 [2]: 45.2 µM (active)

IC50 (Caspase-3): > 99 µM (inactive)
IC50 [1]: 62.1 µM (active)
IC50 [3]: 78.2 µM (active)
SMILES: O=C(O)CCN1C(=O)/C(=C/c2cccc(OCC(=O)Nc3ccc(Cl)cc3)c2)SC1=S
IC50 [2]: 92.8 µM (active)

IC50 (Caspase-3): 1.92 µM (active)
IC50 [1]: 7.53 µM (active)
IC50 [3]: 2.75 µM (active)
SMILES: O=C(Nc1ccc(F)cc1)c1ccc2c(c1)OCO2
IC50 [2]: 8.03 µM (active)

SMILES: O=C1ON(Cc2ccccc2)C(c2ccccc2)N1c1ccccc1 (stereo not drawn)
GI50 (P388/ADR): 54 µM (inactive)
GI50 (SN12K1): > 100 µM (inactive)
GI50 (P388): 7.45 µM (inactive)

SMILES: O=NN1C(c2ccccc2)CCCC1c1ccccc1 (stereo not drawn)
GI50 (P388/ADR): 31.8 µM (inactive)
GI50 (SN12K1): > 63.5 µM (inactive)
GI50 (P388): 27.5 µM (inactive)

SMILES: COC(=O)c1ccc(/N=N/N(C)COc2ccc([N+](=O)[O-])cc2)cc1
GI50 (P388/ADR): 23.6 µM (inactive)
GI50 (SN12K1): 40.2 µM (inactive)
GI50 (P388): 37.7 µM (inactive)

SMILES: COC1=C(C)C(=O)C2=C(C1=O)C1C3CC4=C(C(=O)C(OC)=C(C)C4=O)C(CNC(=O)C(C)O)N3C(C#N)C(C2)N1C (stereo not drawn)
GI50 (P388/ADR): 0.203 µM (active)
GI50 (SN12K1): < 0.01 µM (active)
GI50 (P388): < 0.01 µM (active)

SMILES: O=S(=O)(O)c1ccc(/N=N\c2ccc(/N=N/c3ccc(/C=C/c4ccc(/N=[N+](\[O-])c5ccc(/C=C/c6ccc(/N=N/c7ccc(/N=N/c8ccc(S(=O)(=O)O)cc8)c8ccccc78)cc6S(=O)(=O)O)c(S(=O)(=O)O)c5)cc4S(=O)(=O)O)c(S(=O)(=O)O)c3)c3ccccc23)cc1
GI50 (SN12K1): > 100 µM (inactive)
GI50 (P388): > 100 µM (inactive)

SMILES: C/C=C/c1ccc([C@@H]2[C@@H](CO)N(C(=O)Cc3cccnc3)[C@H]2CNC(C)=O)cc1
AC50 [4]: 28.6 µM (active)

SMILES: C[C@@H]1CN([C@@H](C)CO)C(=O)c2cccc(NC(=O)Nc3ccc(C(F)(F)F)cc3)c2O[C@H]1CN(C)Cc1ccc(Cl)c(Cl)c1
AC50 [5]: 0.919 µM (active)

SMILES: C[C@H]1CN([C@@H](C)CO)C(=O)c2cc(C#CC3CCCC3)cnc2O[C@H]1CN(C)C(=O)Cc1ccccn1
AC50 [4]: 21.3 µM (active)

SMILES: C[C@@H]1CN([C@H](C)CO)C(=O)Cc2cc(NC(=O)Cc3cn(C)c4ccccc34)ccc2O[C@@H]1CN(C)Cc1ccc(Cl)c(Cl)c1
AC50 [5]: 5.18 µM (active)

SMILES: C[C@H](CO)N1C[C@H](C)[C@H](CN(C)CC2CCCCC2)Oc2ccc(NC(=O)Nc3ccc(C(F)(F)F)cc3)cc2CC1=O
AC50 [5]: 2.72 µM (active)

SMILES: O=C(N/N=C/c1cc([N+](=O)[O-])ccc1O)/C(=C\c1cccs1)NC(=O)c1ccccc1
EC50 [6]: > 160 µM (inactive)
EC50 (Streptococcus): 2.16 µM (active)
IC50 (Fatty acid synthase [7]): 13.8 µM (active)
EC50 [8]: 3.32 µM (active)
IC50 (Fatty acid synthase [9]): 15.2 µM (active)
IC50 (Albumin): > 94.1 µM (inactive)
EC50 [10]: 0.76 µM (active)
